# Measurements from patent US6825170B2, “6-O-acyl ketolide antibacterials” (Ortho-McNeil Pharmaceutical, Inc., priority 2001, dated 2004).
# Experiments:
# Assay in all cases: MIC, microdilution broth method (NCCLS)
# Format in all cases: cell-based
# Conditions in all cases: 35° C., 16-20 hours
# [1] = system: E. faecalis ATCC29212
# How it was run: (§1)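 MIC taken from visual growth relative to compound-free wells in each tray. Incubation: 35° C for 16-20 h, cation-adjusted Mueller-Hinton broth, two-fold dilution series, ~5×10^4 CFU/well.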
# [2] = system: S. aureus ATCC29213
# How it was run: as §1
# [3] = system: E. coli OC2605
# How it was run: as §1
# [4] = system: H. influenzae ATCC49247
# How it was run: as §1
# [5] = system: S. pneumoniae ATCC49619
# How it was run: as §1
compound,measurement,setting,value
CCC1OC(=O)C(C)C(=O)C(C)C(OC2OC(C)CC(N(C)C)C2O)C(C)(OC(=O)OCC#Cc2ccc(-c3cccnn3)cc2)CC(C)C(=O)C(C)C2NC(=O)OC12C (centres unmarked) [Compound 87],MIC (C: E. faecalis ATCC29212),[1],0.06 mg/L
same,MIC (B: S. aureus ATCC29213),[2],0.12 mg/L
same,MIC (A: E. coli OC2605),[3],8 mg/L
same,MIC (E: H. influenzae ATCC49247),[4],1 mg/L
same,MIC (D: S. pneumoniae ATCC49619),[5],0.03 mg/L
CCC1OC(=O)C(C)C(=O)C(C)C(OC2OC(C)CC(N(C)C)C2O)C(C)(OC(=O)NOCc2ccccc2)CC(C)C(=O)C(C)C2NC(=O)OC12C (centres unmarked) [Compound 570],MIC (C: E. faecalis ATCC29212),[1],0.25 mg/L
same,MIC (B: S. aureus ATCC29213),[2],1 mg/L
same,MIC (A: E. coli OC2605),[3],>16 mg/L
same,MIC (E: H. influenzae ATCC49247),[4],4 mg/L
same,MIC (D: S. pneumoniae ATCC49619),[5],0.03 mg/L
CCC1OC(=O)C(C)C(=O)C(C)C(OC2OC(C)CC(N(C)C)C2O)C(C)(OC(=O)NOCCc2ccc(-c3ncccn3)cc2)CC(C)C(=O)C(C)C2NC(=O)OC12C (centres unmarked) [Compound 571],MIC (C: E. faecalis ATCC29212),[1],0.12 mg/L
same,MIC (B: S. aureus ATCC29213),[2],0.5 mg/L
same,MIC (A: E. coli OC2605),[3],>16 mg/L
same,MIC (E: H. influenzae ATCC49247),[4],4 mg/L
same,MIC (D: S. pneumoniae ATCC49619),[5],0.03 mg/L
CCC1OC(=O)C(C)C(=O)C(C)C(OC2OC(C)CC(N(C)C)C2O)C(C)(OC(=O)NOCc2ccc(-c3ncccn3)cc2)CC(C)C(=O)C(C)C2NC(=O)OC12C (centres unmarked) [Compound 599],MIC (C: E. faecalis ATCC29212),[1],0.25 mg/L
same,MIC (B: S. aureus ATCC29213),[2],0.5 mg/L
same,MIC (A: E. coli OC2605),[3],16 mg/L
same,MIC (E: H. influenzae ATCC49247),[4],2 mg/L
same,MIC (D: S. pneumoniae ATCC49619),[5],0.06 mg/L
CCC1OC(=O)C(C)C(=O)C(C)C(OC2OC(C)CC(N(C)C)C2O)C(C)(OC(=O)NOCC=Cc2ccc(-c3ncccn3)cc2)CC(C)C(=O)C(C)C2NC(=O)OC12C (centres unmarked) [Compound 605],MIC (C: E. faecalis ATCC29212),[1],0.25 mg/L
same,MIC (B: S. aureus ATCC29213),[2],0.25 mg/L
same,MIC (A: E. coli OC2605),[3],16 mg/L
same,MIC (E: H. influenzae ATCC49247),[4],4 mg/L
same,MIC (D: S. pneumoniae ATCC49619),[5],0.06 mg/L
CCC1OC(=O)C(C)C(=O)C(C)C(OC2OC(C)CC(N(C)C)C2O)C(C)(OC(=O)NOCCCc2ccc(-c3ncccn3)cc2)CC(C)C(=O)C(C)C2NC(=O)OC12C (centres unmarked) [Compound 608],MIC (C: E. faecalis ATCC29212),[1],0.5 mg/L
same,MIC (B: S. aureus ATCC29213),[2],0.5 mg/L
same,MIC (A: E. coli OC2605),[3],>16 mg/L
same,MIC (E: H. influenzae ATCC49247),[4],4 mg/L
same,MIC (D: S. pneumoniae ATCC49619),[5],0.06 mg/L
CC[C@H]1OC(=O)[C@H](C)C(=O)[C@H](C)[C@@H](O[C@@H]2O[C@H](C)C[C@H](N(C)C)[C@H]2O)[C@](C)(OC(=O)NOCCc2ccccc2)C[C@@H](C)C(=O)[C@H](C)[C@H]2NC(=O)O[C@@]21C [Compound 611],MIC (C: E. faecalis ATCC29212),[1],0.5 mg/L
same,MIC (B: S. aureus ATCC29213),[2],2 mg/L
same,MIC (A: E. coli OC2605),[3],>16 mg/L
same,MIC (E: H. influenzae ATCC49247),[4],8 mg/L
same,MIC (D: S. pneumoniae ATCC49619),[5],0.12 mg/L
CC[C@H]1OC(=O)[C@H](C)C(=O)[C@H](C)[C@@H](O[C@@H]2O[C@H](C)C[C@H](N(C)C)[C@H]2O)[C@](C)(OC(=O)NOCCCc2ccccc2)C[C@@H](C)C(=O)[C@H](C)[C@H]2NC(=O)O[C@@]21C [Compound 612],MIC (C: E. faecalis ATCC29212),[1],0.25 mg/L
same,MIC (B: S. aureus ATCC29213),[2],1 mg/L
same,MIC (A: E. coli OC2605),[3],>16 mg/L
same,MIC (E: H. influenzae ATCC49247),[4],4 mg/L
same,MIC (D: S. pneumoniae ATCC49619),[5],0.06 mg/L
CC[C@H]1OC(=O)[C@H](C)C(=O)[C@H](C)[C@@H](O[C@@H]2O[C@H](C)C[C@H](N(C)C)[C@H]2O)[C@](C)(OC(=O)NNc2ccccc2)C[C@@H](C)C(=O)[C@H](C)[C@H]2NC(=O)O[C@@]21C [Compound 624],MIC (C: E. faecalis ATCC29212),[1],0.5 mg/L
same,MIC (B: S. aureus ATCC29213),[2],4 mg/L
same,MIC (A: E. coli OC2605),[3],>16 mg/L
same,MIC (E: H. influenzae ATCC49247),[4],4 mg/L
same,MIC (D: S. pneumoniae ATCC49619),[5],0.12 mg/L
CC[C@H]1OC(=O)[C@H](C)C(=O)[C@H](C)[C@@H](O[C@@H]2O[C@H](C)C[C@H](N(C)C)[C@H]2O)[C@](C)(OC(=O)n2ccc(C(=N)Cc3ccccc3)c2)C[C@@H](C)C(=O)[C@H](C)[C@H]2NC(=O)O[C@@]21C [Compound 845],MIC (C: E. faecalis ATCC29212),[1],>16 mg/L
same,MIC (B: S. aureus ATCC29213),[2],>16 mg/L
same,MIC (E: H. influenzae ATCC49247),[4],>16 mg/L
same,MIC (D: S. pneumoniae ATCC49619),[5],4 mg/L
CCC1OC(=O)C(C)C(=O)C(C)C(OC2OC(C)CC(N(C)C)C2O)C(C)(OC(=O)n2ccc(C(=N)CCCc3ccccc3)c2)CC(C)C(=O)C(C)C2NC(=O)OC12C (centres unmarked) [Compound 846],MIC (C: E. faecalis ATCC29212),[1],1 mg/L
same,MIC (B: S. aureus ATCC29213),[2],8 mg/L
same,MIC (E: H. influenzae ATCC49247),[4],2 mg/L
same,MIC (D: S. pneumoniae ATCC49619),[5],0.25 mg/L
